According to PMC12769565, “Design, synthesis and biological activity of glycoconjugated ADAMTS5 exosite inhibitors: applications in osteoarthritis and ovarian cancer models” (Scientific Reports, 2025):

Columns and labels:
Type in all cases: biochemical
[1] = target: T1, ADAMTS4 (Homo sapiens, UniProt O75173); assay: QF peptide cleavage assay (peptidolytic activity); details: compared to DMSO control
T1 construct: Human recombinant full-length FLAG-tagged ADAMTS4 and ADAMTS5 were expressed in HEK293T cells; FLAG; made in house; host or cells: HEK293T cells
T1 sequence (O75173 213-837): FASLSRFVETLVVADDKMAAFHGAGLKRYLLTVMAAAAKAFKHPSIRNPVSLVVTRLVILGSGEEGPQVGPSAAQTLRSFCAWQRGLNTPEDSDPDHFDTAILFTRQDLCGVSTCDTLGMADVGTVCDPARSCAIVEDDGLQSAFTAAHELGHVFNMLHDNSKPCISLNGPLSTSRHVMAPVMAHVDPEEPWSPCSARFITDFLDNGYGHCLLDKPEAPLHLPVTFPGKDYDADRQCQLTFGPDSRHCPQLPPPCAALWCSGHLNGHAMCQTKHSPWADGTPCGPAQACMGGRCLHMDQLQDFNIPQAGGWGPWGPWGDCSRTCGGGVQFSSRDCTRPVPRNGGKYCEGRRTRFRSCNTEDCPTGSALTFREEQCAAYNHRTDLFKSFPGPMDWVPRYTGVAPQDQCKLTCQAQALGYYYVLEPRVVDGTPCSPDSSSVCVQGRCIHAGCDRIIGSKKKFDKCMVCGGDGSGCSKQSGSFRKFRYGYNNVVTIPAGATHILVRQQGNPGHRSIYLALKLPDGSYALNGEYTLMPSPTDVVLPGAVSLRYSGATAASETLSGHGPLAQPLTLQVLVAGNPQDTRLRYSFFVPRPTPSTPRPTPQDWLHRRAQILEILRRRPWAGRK
Description: (§1) Human recombinant full-length FLAG-tagged ADAMTS4 and ADAMTS5 were expressed in HEK293T cells (Thermo Fisher Scientific) and purified by anti-FLAG immunoaffinity chromatography as before. Concentrations of active proteases were determined by active-site titrations with known concentrations of TIMP-3 (Bio-Techne, 973-TM-010), using QF peptides as substrates. V1-5GAG, a truncated version of versican V1 isoform comprising residues 21–694 and containing a C-terminal 6x His tag[67], was expressed in HE293T cells and purified by immobilized metal affinity chromatography as before.
(§2) QF peptide cleavage assays were conducted in TNC-B (50 mM Tris–HCl, pH 7.5, 150 mM NaCl, 10 mM CaCl2, and 0.02% NaN3) on a SpectraMax i3x Multi-Mode Platform (Molecular Devices, UK) in a total volume of 20 µl at 37℃ as before. ADAMTS4 (3.5 nM) or ADAMTS5 (4 nM) were incubated with compounds 1–4 (100 µM, diluted in TNC-B from 10 mM DMSO stocks) or DMSO for 1 h at 37 ℃ before addition of QF peptides fluorescein-5(6)-carbonyl-[…]N, N,N0,N0-tetramethyl-6-carboxyrhodamine, and fluorescein-5(6)-carbonyl-Thr-Glu-Ser-Glu - […]N, N,N0,N0-tetramethyl-6-carboxyrhodamine, respectively, each at 40 µM. Fluorescence intensity was recorded with an excitation wavelength of 485 nm and an emission wavelength of 535 nm every min for 2 h, expressed as relative fluorescence units and normalized against a blank containing only buffer and substrate. Fluorescence values were converted into residual activity by fixing as 100% the activity of the reactions containing an equal concentration (v/v) of DMSO instead of compound (DMSO control).

[2] = target: T2, ADAMTS5 (Homo sapiens, UniProt Q9UNA0); assay: QF peptide cleavage assay (peptidolytic activity); details: 100 µM; compared to DMSO control
T2 construct: Human recombinant full-length FLAG-tagged ADAMTS4 and ADAMTS5 were expressed in HEK293T cells; FLAG; made in house; host or cells: HEK293T cells
T2 sequence (Q9UNA0 262-930): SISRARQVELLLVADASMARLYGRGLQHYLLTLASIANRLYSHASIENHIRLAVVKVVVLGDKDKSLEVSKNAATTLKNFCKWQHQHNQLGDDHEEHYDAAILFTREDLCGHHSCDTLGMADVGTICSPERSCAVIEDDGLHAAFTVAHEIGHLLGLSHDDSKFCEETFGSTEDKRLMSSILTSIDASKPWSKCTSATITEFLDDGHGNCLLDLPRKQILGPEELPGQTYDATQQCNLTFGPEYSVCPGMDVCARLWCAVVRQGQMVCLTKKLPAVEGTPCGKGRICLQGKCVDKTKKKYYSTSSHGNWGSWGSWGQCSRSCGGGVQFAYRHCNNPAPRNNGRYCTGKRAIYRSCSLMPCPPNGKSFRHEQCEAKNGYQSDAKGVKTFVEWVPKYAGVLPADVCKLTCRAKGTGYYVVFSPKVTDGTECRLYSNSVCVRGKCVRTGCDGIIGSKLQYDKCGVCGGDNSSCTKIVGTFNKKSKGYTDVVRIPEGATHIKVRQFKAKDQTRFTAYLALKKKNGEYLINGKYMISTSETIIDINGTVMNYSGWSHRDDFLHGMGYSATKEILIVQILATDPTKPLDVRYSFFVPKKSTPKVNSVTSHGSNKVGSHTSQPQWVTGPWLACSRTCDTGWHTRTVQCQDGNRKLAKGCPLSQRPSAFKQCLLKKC
Description: as §1, §2

[3] = target: T1, ADAMTS4; assay: Versicanase assay (V1-5GAG, versikine sandwich ELISA); details: compared to DMSO control
Description: as §1
Compounds 1–4 (100 µM) or DMSO were incubated with ADAMTS4 (5 nM) or ADAMTS5 (0.4 nM) for 2 h at 37 °C, before addition of V1-5GAG (50 nM). At each time point, reactions were stopped by addition of ethylenediaminetetraacetic acid and ADAMTS-generated versican fragments (versikine) quantified by sandwich ELISA as before[29],[30],[38] using anti-DPEAAE neoepitope antibody (Life Technologies, PA1-1748 A, 5 µg/ml) and polyclonal anti-versican antibody (Abcam, ab171887, 3 µg/ml). For each reaction, the amount of versikine generated was derived from a standard curve (0–1.56 nM) of V1-5GAG completely digested with ADAMTS5. Initial velocities were calculated from the concentration of versikine generated as a function of reaction time. Percent of inhibition was calculated from the DMSO control reactions. IC50 values were determined using the formula: vi/v0 = 1/(1 + [I]/IC50) where vi is the initial velocity of substrate cleavage in the presence of the inhibitor at concentration [I] and v0 is the initial velocity in the presence of an equal concentration (v/v) of DMSO.

[4] = target: T2, ADAMTS5; assay: Aggrecanase assay (bovine aggrecan, anti-ARGSV neoepitope immunoblot); details: 100 µM
Description: Aggrecanase assays were carried out as before. ADAMTS5 (1 nM) was incubated with compounds 2 and 3 or DMSO for 2 h at 37 °C in TNC-B buffer before addition of bovine articular aggrecan (UniProt ID: P13608, 270 nM) (Merck, A1960). After 2 h digestion at 37 °C, the reactions were stopped with ethylenediaminetetraacetic acid and the samples incubated with 0.1 U/ml of chondroitinase ABC (AMS Biotechnology, Abingdon, UK) and keratanase (endo-beta galactosidase, Merck, G6920) in deglycosylation buffer (50 mM sodium acetate, 25 mM Tris HCl pH 8.0) for 16 h at 37 °C to remove GAG chains.
Samples were separated by SDS-PAGE under reducing conditions (5% β-mercaptoethanol) on BOLT, 4–12%, Bis-Tris Gels (Invitrogen) in MES Running Buffer (NuPAGE). Proteins were transferred onto a nitrocellulose membrane using Trans-Blot Turbo™ Transfer System (BioRad), at 25 V, 2.5 A for 30 min. Membranes were blocked with 3% BSA/PBS for 1 h at room temperature. Aggrecan fragments generated by ADAMTS cleavage at E^392-A^393[8] or E^1953-A^1954[68] were detected using mouse monoclonal anti-ARGSV antibody (BC3, Life Technologies, MA3-16888, 4 µg/ml) or polyclonal anti-AGEG neoepitope antibody (serum, 1:200 dilution)[12],[33], respectively, followed by the appropriate horseradish peroxidase (HRP)-conjugated secondary antibodies (polyclonal Goat Anti-Mouse P0447, 0.1 ng/µl and polyclonal Goat Anti-Rabbit, P0448, 0.03 ng/µl, both from Agilent Technologies LDA UK Ltd). All antibodies were diluted in 0.5% bovine serum albumin (BSA)/PBS. Washes between each step were carried out in triplicate, for 15 min each, with PBS-Tween (0.1%). Following addition of the chemiluminescent HRP substrate (Millipore, WBKL30500) membranes were imaged using Bio-Rad Chemidoc Touch Imaging System. Analysis was carried out using BioRad ImageLab software (version 5.2.1) using sequential exposures to avoid saturation artifacts. Figures for unprocessed blots are included in Supplementary information Fig. S4 and Fig. S5 with highlighted regions (in red boxes) corresponding to the data reported in the main manuscript figures.

inhibition at 100 µM [1]: 48%
inhibition of ADAMTS5 peptidolytic activity [2]: significant inhibition
inhibition at 100 µM [3]: 42%
inhibition of ADAMTS5 aggrecanase activity [4]: ineffective
Compound: CCC(C)N(Cc1cn(CCCO[C@@H]2O[C@H](CO[C@@H]3O[C@H](CO)[C@H](O)[C@H](O)[C@H]3O)[C@@H](O)[C@H](O)[C@H]2NC(C)=O)nn1)S(=O)(=O)c1ccc(-c2ccccc2)cc1 (stereo partly drawn) [compound 3, N-((2R,3R,4R,5 S,6R)-2-(3-(4-((N-(sec-butyl)-[1,1’-biphenyl]-4-sulfonamido)methyl)-1 H-1,2,3-triazol-1-yl)propoxy)-4,5-dihydroxy-6-((((2R,3R,4 S,5R,6R)-3,4,5-trihydroxy-6-(hydroxymethyl)tetrahydro-2 H-pyran-2-yl)oxy)methyl)tetrahydro-2 H-pyran-3-yl)acetamide]
